In ChEMBL document CHEMBL5727760, “Pyrrolidine derivatives” (2020) one finds IC50 data, which are given here for six compounds.

The target of this test is Cathepsin S (Homo sapiens, UniProt P25774). The test can be described thus: Enzyme Inhibition Assay: Enzyme activity is measured by observing the increase in fluorescence intensity caused by cleavage of a peptide substrate containing a fluorophore whose emission is quenched in the intact peptide.Assay buffer: 100 mM potassium phosphate pH 6.5, EDTA-Na 5 mM, Triton X-100 0.001%, DTT 5 mM.Enzymes (all at 1 nM): human and mouse Cathepsin S, Cat K, Cat B, Cat L.Substrate (20 μM): Z-Val-Val-Arg-AMC, except for Cat K which uses Z-Leu-Arg-AMC (both from Bachem).Z=Benzyloxycarbonyl.AMC=7-Amino-4-Methyl-Coumarin.DTT=dithiothreitol.Final volume: 100 μL.Excitation 360 nm, Emission 465 nm.Enzyme is added to the substance dilutions in 96-well microtitre plates and the reaction is started with substrate.
Cathepsin S, sequence (P25774 whole entry): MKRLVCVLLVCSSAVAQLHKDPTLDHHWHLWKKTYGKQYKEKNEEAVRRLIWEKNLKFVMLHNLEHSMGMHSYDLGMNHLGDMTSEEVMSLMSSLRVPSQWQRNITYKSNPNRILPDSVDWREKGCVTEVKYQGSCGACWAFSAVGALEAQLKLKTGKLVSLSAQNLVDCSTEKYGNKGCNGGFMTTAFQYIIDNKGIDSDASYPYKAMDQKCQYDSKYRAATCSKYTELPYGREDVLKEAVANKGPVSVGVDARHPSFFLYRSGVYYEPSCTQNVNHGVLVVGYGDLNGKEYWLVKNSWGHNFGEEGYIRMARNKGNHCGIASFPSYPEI
In general, IC50 refers to the point on the concentration scale where inhibition reaches its midpoint. Read a high IC50 as weaker potency. For the compound `N#CC1(NC(=O)[C@@H]2C[C@@H](S(=O)(=O)c3ccc(-n4cnc(Cl)n4)cc3C(F)(F)F)CN2C(=O)C2(C(F)(F)F)CC2)CC1`, 0.625 nM corresponded to half-maximal inhibition (IC50). Consider `N#CC1(NC(=O)[C@@H]2C[C@@H](S(=O)(=O)c3ccc(-n4cc(C(F)(F)F)cn4)cc3C(F)(F)F)CN2C(=O)C2(C(F)(F)F)CC2)CC1`, for which the IC50 came out at 0.752 nM. In turn, `Cc1nnnn1-c1ccc(S(=O)(=O)[C@@H]2C[C@@H](C(=O)NC3(C#N)CC3)N(C(=O)C3(C(F)(F)F)CC3)C2)c(C(F)(F)F)c1` returned an IC50 of 0.349 nM. Compared with the last compound, the IC50 is about 2.2-fold lower. The compound `N#CC1(NC(=O)[C@@H]2C[C@@H](S(=O)(=O)c3ccc(-n4cnnn4)cc3C(F)(F)F)CN2C(=O)C2(C(F)(F)F)CC2)CC1` returned an IC50 of 0.584 nM. Take `N#CC1(NC(=O)[C@@H]2C[C@@H](S(=O)(=O)c3ccc(-n4cncn4)cc3C(F)(F)F)CN2C(=O)C2(C(F)(F)F)CC2)CC1`: the IC50 is 0.391 nM. The compound `N#CC1(NC(=O)[C@@H]2C[C@@H](S(=O)(=O)c3ccc(-n4nccn4)cc3C(F)(F)F)CN2C(=O)C2(C(F)(F)F)CC2)CC1` gave an IC50 of 0.506 nM.
